# Measured values published in paper PMC5736782, “The Differential Absorption of a Series of P-Glycoprotein Substrates in Isolated Perfused Lungs from Mdr1a/1b Genetic Knockout Mice can be Attributed to Distinct Physico-Chemical Properties: an Insight into Predicting Transporter-Mediated, Pulmonary Specific Disposition” (Pharmaceutical Research, 2017).
# How the values were obtained:
# [1] = tested on: P-glycoprotein (Mdr1a/Mdr1b) in isolated perfused mouse lung; assay: Isolated perfused mouse lung (IPML) airway-to-perfusate absorption, Mdr1a/1b (+/+) vs (−/−); details: for Mdr1a/1b (+/+) % Deposited Dose absorbed / Mdr1a/1b (-/-) % Deposited Dose absorbed / Mdr1a/1b (+/+) ‘F’ estimate by model fit [95% CI) / Mdr1a/1b (-/-) ‘F’ estimate by model fit [95% CI) / Ratio AUCs (-/-) : (+/+): male, mouse, 50 μM; for Mdr1a/1b (+/+) % Deposited Dose absorbed / Mdr1a/1b (-/-) % Deposited Dose absorbed: 30 min
# Experimental: The atria and the lower half of the heart were cut to allow the free flow of perfusate. The lungs were removed and suspended vertically in a custom water-jacketed glass thorax (Radleys, Essex, UK) maintained at 37°C.
# Following dosing of compound into the IPML airways serial samples (250 μL) were collected for bioanalysis from the 10 mL recirculating perfusate reservoir. Each sample collected from the reservoir was replaced with an equal volume of fresh warmed, oxygenated perfusate. Upon termination of the experiment the dose solutions, apparatus washings and perfusate samples were collected for mass balance calculations enabling determination of the actual total dose delivered to the lungs.
# Radioactive compounds were directly analysed by liquid scintillation counting. Volumes of 50 μL perfusate samples were mixed with 3 mL of Scintisafe 3 Liquid Scintillation Fluid (Fisher, UK) and transferred to vials for scintillation counting using a TriCarb 2900TR (Packard Bioscience, USA).
# After accounting for the mass of compound removed at each sample point, plots of the cumulative ‘%deposited dose absorbed’ versus ‘time’ were generated and subject to nonlinear regression analysis according to a first-order absorption one-compartment accumulating model (Eq. 1) to generate estimates for the extent (F) and rate (Ka) of absorption from the IPML airways to the recirculating perfusate.
# The data was also subject to standard non-compartmental analysis, specifically Area Under Curve (AUC0–30 min) of ‘%deposited dose absorbed’ versus ‘time’ (units: %Dose.min) and reflecting for the exclusively accumulating perfusate ‘compartment’ the exposure arising from the IPML absorption process alone.
# mouse Bcrp = biological target: T1, mouse Bcrp (Mus musculus, UniProt Q7TMS5); assay: Gentest ABC transporter membrane ATPase assay; type: biochemical; details: for Vmax: ATPase, 0 indicates no enzyme turnover
# T1 construct: purchased Corning (Gentest), Germany
# T1 sequence (Q7TMS5 1-657): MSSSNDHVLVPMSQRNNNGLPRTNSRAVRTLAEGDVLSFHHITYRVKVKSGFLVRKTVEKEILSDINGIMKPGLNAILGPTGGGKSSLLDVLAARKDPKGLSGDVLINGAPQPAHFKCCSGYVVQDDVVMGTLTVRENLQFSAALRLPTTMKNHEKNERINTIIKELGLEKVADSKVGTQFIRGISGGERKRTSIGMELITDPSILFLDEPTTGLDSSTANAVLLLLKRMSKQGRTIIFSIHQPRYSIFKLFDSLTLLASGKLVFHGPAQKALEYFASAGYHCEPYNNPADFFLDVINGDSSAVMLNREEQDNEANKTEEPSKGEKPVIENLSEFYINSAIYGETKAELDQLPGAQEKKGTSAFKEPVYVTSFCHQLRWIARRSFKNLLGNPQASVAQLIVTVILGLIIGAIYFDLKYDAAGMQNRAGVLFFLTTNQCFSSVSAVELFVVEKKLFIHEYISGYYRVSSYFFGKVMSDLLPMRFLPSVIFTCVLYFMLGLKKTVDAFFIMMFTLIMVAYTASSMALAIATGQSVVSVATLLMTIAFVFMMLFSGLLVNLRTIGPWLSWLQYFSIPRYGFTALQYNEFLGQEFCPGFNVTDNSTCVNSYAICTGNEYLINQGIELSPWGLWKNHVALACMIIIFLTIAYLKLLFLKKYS
# Text: (§1) The Gentest ATPase assay (Corning, Germany) was used to investigate the binding kinetics of the panel of P-gp substrates against membranes constituted to display human MDR1, mouse Mdr1a, mouse Mdr1b and mouse Bcrp. The assays measure the accumulation of inorganic phosphate (absorbance at 800 nm) produced in the breakdown of ATP to ADP. […] The assays were used in accordance with the manufacturer’s protocol to calculate (GraphPad Prism) the Michaelis-Menten parameters Km and VMAX. For the assay test compounds were serially diluted to produce an assay concentration range of 0–300 μM with the kinetics of ATP turnover examined over 30 min at 37°C.
# [2] = Immobilised artificial membrane (IAM) chromatography; type: physicochemical; details: extrapolated to 100% water; mean of four experiments
# Experimental: IAM chromatography provided an experimental measure of substrate membrane affinity and phospholipid interaction. The IAM column (Regis Technologies Inc., Hichrom, Reading, UK; IAM.PC.DD2 10 cm x 4.6 mm ID column) was run under isocratic eluting conditions with the retention of all compounds determined under three mobile phase conditions: 10%, 20% and 30% acetonitrile in water, and from which the theoretical retention time in 100% water was calculated by linear regression. LogK^IAM values were calculated according to Eq. 2:2 LogK^IAM=LogTr−T0/T0
# where Tr and T0 are respectively the retention times of the substrate in 100% water and of the unretained compound, i.e. eluting within the solvent front of 75 s in all experiments.
# [3] = Multi-lamellar liposome vesicle (MLV) partitioning; type: physicochemical; details: (C0−CS)/C0, 1 μg/mL, 4 h, 37°C, PBS pH 7.4
# Experimental: MLVs were formed as previously described ([20]). Briefly, solutions of 8 mg phosphatidylcholine and 2 mg phosphatidylglycerol in 10 mL chloroform were completely dried to a lipid film (rotation under vacuum).
# These preparations were then incubated at 37°C for 4 h under shaking conditions to allow equilibration of compound between the lipid and aqueous fractions. The MLVs were then pelleted and 100 μL of supernatant removed for analysis by radiometric or LC-MS/MS methods as described above. Partitioning into the MLVs was determined according to Eq. 3:3 MLVpartitioning=C0−CS/C0
# where C0 is the initial compound concentration (1 μg/mL) and CS is the compound concentration present in the aqueous supernatant at the end of 4 h incubation.
# mouse Mdr1a = mouse Mdr1a (Mus musculus, UniProt P21447); assay: Gentest ABC transporter membrane ATPase assay; details: 0–300 μM, 30 min, 37°C
# mouse Mdr1b = mouse Mdr1b (Mus musculus, UniProt P06795); assay: Gentest ABC transporter membrane ATPase assay; details: 0–300 μM, 30 min, 37°C
# [4] = tested on: P-gp (Mdr1a/1b) in mouse intestinal segments; assay: Ussing chamber intestinal permeability, ileal segments Mdr1a/1b (+/+) vs (−/−); details: for Mdr1a/1b (−/−) Permeability coefficient: P-gp knockout intestinal segments; for Mdr1a/1b (−/−) Permeability coefficient / Mdr1a/1b (+/+) Permeability coefficient: mucosal to serosal, 50 μM, 180 min; for Mdr1a/1b (+/+) Permeability coefficient: wild-type intestinal segments; for Ratio Permeability (−/−): (+/+): intestinal Papp KO:WT
# Experimental: The bathing fluid for both mucosal and serosal surfaces (3 mL volume in each chamber) comprised oxygenated Krebs-Henseleit buffer maintained at 37°C (heating block) under stirred conditions (gas flow manifold). […] Any intestinal segments presenting an initial TEER of lower than 80 Ω.cm^2 were discarded prior to the experiment, likewise any segments whose TEER decreased by more than 10% over the course of the experiment were excluded.
# Thereafter permeability coefficients were determined according to Eq. 4:4 ρ=dM/dt/A^∗C0
# human MDR1 = human MDR1 (Homo sapiens, UniProt P08183); assay: Gentest ABC transporter membrane ATPase assay; details: ATPase, 0–300 μM, 30 min, 37°C
# Text: as §1
# [5] = set-up: method as in PMID 12761811; details: cited from earlier work
# Caco-2 cell model = tested on: Caco-2 cell model; set-up: method as in PMID 12761811; details: cited from earlier work
# [6] = set-up: method as in PMID 4654354; details: cited from earlier work
# P-gp = tested on: P-gp; set-up: method as in PMID 23670704; details: IPRL and IPML models; cited from earlier work
# Sequence of mouse Mdr1b (P06795 whole entry): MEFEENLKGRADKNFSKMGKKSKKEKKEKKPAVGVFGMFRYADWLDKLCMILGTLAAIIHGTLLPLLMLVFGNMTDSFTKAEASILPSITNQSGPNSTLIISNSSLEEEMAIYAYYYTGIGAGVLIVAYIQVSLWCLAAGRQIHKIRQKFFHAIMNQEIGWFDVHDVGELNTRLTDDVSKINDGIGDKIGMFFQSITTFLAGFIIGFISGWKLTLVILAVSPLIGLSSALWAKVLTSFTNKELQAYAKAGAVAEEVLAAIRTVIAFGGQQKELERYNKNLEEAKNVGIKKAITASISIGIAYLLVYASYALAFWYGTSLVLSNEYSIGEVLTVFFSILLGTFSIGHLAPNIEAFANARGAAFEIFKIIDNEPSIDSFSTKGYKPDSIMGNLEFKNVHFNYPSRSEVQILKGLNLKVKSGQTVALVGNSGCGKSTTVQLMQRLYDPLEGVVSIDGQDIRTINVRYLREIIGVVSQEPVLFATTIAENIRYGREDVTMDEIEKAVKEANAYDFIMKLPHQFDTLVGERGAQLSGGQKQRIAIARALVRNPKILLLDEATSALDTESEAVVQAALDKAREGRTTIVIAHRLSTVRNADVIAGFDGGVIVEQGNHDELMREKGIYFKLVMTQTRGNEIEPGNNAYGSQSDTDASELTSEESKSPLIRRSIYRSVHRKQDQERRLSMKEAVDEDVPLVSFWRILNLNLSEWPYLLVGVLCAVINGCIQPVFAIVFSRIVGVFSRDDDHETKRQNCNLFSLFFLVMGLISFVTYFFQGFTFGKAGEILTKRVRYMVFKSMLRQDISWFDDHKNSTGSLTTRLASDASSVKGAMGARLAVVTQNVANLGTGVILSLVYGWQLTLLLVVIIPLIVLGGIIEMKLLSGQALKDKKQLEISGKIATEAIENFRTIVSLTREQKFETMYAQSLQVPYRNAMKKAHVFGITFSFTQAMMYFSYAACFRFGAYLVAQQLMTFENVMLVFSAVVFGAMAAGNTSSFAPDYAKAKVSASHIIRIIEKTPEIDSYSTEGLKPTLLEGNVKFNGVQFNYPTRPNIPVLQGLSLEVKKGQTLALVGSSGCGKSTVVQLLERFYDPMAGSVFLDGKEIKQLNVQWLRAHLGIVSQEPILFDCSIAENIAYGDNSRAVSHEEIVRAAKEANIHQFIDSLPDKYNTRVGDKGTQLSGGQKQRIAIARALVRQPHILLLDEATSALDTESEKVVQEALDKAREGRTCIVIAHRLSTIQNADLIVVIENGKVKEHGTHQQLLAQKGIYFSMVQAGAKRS
# Sequence of mouse Mdr1a (P21447 whole entry): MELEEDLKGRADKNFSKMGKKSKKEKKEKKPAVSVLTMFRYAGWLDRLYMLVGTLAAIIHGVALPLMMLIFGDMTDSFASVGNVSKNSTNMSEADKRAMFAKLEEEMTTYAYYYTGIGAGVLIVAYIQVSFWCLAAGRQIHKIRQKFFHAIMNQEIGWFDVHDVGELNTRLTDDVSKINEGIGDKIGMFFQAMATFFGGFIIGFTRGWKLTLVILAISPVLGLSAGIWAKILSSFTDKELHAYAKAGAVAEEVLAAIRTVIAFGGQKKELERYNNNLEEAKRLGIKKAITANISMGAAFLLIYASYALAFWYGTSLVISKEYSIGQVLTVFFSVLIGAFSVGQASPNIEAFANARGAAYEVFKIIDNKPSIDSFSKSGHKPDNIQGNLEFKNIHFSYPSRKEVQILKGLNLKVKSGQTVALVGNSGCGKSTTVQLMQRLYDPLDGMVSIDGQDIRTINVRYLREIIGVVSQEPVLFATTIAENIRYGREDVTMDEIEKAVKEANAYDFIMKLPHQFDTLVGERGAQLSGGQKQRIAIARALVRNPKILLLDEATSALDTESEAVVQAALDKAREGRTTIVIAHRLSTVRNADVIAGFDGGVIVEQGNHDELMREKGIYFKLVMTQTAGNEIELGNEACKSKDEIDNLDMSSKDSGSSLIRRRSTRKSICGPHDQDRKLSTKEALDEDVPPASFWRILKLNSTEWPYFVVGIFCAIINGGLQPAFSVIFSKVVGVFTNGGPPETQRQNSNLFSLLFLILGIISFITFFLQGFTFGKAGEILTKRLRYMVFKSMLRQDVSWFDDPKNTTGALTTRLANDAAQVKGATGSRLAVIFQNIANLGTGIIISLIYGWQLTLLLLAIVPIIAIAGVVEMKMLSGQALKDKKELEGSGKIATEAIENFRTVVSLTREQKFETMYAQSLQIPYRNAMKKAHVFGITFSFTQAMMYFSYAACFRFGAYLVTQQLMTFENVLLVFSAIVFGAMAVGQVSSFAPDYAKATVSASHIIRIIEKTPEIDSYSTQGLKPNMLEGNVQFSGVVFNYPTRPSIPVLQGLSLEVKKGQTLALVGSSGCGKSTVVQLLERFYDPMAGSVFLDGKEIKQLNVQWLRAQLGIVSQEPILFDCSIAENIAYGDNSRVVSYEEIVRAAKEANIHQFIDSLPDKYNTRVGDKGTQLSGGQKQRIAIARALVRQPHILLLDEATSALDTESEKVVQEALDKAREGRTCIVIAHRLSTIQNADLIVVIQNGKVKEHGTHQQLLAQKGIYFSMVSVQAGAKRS
# Sequence of human MDR1 (P08183 whole entry): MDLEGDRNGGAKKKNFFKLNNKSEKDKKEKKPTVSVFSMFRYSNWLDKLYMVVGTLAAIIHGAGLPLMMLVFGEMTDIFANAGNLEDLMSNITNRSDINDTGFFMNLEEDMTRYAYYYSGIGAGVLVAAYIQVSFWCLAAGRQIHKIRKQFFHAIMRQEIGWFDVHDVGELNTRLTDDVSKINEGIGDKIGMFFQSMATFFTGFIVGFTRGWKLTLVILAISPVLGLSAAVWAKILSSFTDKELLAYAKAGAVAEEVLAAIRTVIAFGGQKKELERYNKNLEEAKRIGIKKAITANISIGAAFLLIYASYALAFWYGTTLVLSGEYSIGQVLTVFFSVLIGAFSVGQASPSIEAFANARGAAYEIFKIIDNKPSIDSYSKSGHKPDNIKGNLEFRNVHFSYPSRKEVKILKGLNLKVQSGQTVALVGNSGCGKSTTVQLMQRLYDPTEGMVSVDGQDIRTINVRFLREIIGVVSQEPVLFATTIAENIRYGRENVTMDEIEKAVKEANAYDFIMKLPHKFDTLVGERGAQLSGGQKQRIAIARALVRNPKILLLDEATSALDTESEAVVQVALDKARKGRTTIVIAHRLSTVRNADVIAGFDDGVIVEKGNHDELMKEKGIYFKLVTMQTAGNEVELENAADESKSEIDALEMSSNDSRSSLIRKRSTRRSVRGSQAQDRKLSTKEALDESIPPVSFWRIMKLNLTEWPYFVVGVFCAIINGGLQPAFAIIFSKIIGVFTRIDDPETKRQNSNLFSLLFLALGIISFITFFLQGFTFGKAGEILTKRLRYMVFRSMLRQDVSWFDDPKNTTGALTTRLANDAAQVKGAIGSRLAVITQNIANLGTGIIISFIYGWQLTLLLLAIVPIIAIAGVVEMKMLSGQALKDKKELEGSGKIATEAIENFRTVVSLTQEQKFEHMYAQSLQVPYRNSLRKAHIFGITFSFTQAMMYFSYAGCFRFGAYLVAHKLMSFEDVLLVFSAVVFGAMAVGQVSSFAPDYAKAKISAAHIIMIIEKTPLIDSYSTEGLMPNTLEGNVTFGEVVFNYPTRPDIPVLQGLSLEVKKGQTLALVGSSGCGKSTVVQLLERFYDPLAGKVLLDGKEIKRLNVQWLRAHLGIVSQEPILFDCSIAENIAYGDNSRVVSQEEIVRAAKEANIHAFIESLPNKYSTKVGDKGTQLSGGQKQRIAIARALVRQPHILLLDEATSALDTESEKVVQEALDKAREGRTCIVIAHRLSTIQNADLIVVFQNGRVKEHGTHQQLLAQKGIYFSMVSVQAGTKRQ
Compound,Group (impact of Mdr1a/1b knockout on IPML absorption) [1],Mdr1a/1b (+/+) % Deposited Dose absorbed [1],Mdr1a/1b (-/-) % Deposited Dose absorbed [1],Vmax (mouse Bcrp),LogK^IAM [2],MLV Partitioning [3],Vmax (mouse Mdr1a),Vmax (mouse Mdr1b),Mdr1a/1b (−/−) Permeability coefficient [4],Mdr1a/1b (+/+) Permeability coefficient [4],Mdr1a/1b (+/+) ‘F’ estimate by model fit [95% CI) [1],Mdr1a/1b (-/-) ‘F’ estimate by model fit [95% CI) [1],also measured
"CC[C@H]1OC(=O)[C@H](C)[C@@H](O[C@H]2C[C@@](C)(OC)[C@@H](O)[C@H](C)O2)[C@H](C)[C@@H](O[C@@H]2O[C@H](C)C[C@H](N(C)C)[C@H]2O)[C@](C)(O)C[C@@H](C)C(=O)[C@H](C)[C@@H](O)[C@]1(C)O [Erythromycin, erythromycin]",GROUP A,55.5%,54.1%,0 µM/min,0.88,0.46,28.4 µM/min,48.5 µM/min,13.70 ± 4.54 cm/s (x10^−6),3.02 ± 1.15 cm/s (x10^−6),,,
"O=c1[nH]c2ccccc2n1CCCN1CCC(n2c(=O)[nH]c3cc(Cl)ccc32)CC1 [Domperidone, domperidone]",,,,,1.33,0.92,,,,,,,
"COc1ccc(C[C@H](N)C(=O)N[C@H]2[C@@H](O)[C@H](n3cnc4c(N(C)C)ncnc43)O[C@@H]2CO)cc1 [Puromycin, puromycin]",GROUP A,46.9%,49.3%,0 µM/min,1.31,0.62,16.5 µM/min,31.5 µM/min,14.95 ± 2.33 cm/s (x10^−6),5.83 ± 2.38 cm/s (x10^−6),48.2 [43.7 to 52.8],56.1 [48.1 to 64.1],Ratio AUCs (-/-) : (+/+) [1]: 1.01; Vmax (human MDR1): 19.6 µM/min; Ratio Permeability (−/−): (+/+) [4]: 2.56
cyanocobalamin,,,,,,,,,,,,,permeability across the lung [5]: high permeability; Papp (Caco-2 cell model): < 1 ×10⁻⁶ cm/s
O=C(O)c1cc(=O)c2c(OCC(O)COc3cccc4oc(C(=O)O)cc(=O)c34)cccc2o1 [cromolyn],,,,,,,,,,,,,permeability across the lung [5]: high permeability; Papp (Caco-2 cell model): < 1 ×10⁻⁶ cm/s
OC[C@@H](O)[C@@H](O)[C@H](O)[C@H](O)CO [mannitol],,,,,,,,,,,,,Mdr1a/1b (+/+) % Deposited Dose absorbed ([1]; FVB/B6 Mdr1a/1b(+/+) wild-type): 44.3 ± 9.4%; Mdr1a/1b (-/-) % Deposited Dose absorbed ([1]; FVB/B6 Mdr1a/1b(−/−) knockout): 43.2 ± 10.2%; absorbed from the lung [6]: 50 % of administered dose; absorbed from the small intestine [6]: < 2%
"CN1CCC[C@@H]1Cc1c[nH]c2ccc(CCS(=O)(=O)c3ccccc3)cc12 [Eletriptan, eletriptan]",GROUP B,17.9%,26.6%,0 µM/min,1.46,0.94,,,11.04 ± 2.17 cm/s (x10^−6),4.90 ± 2.51 cm/s (x10^−6),18.5 [16.5 to 20.5],25.8 [23.6 to 27.9],Ratio AUCs (-/-) : (+/+) [1]: 1.39; Ratio Permeability (−/−): (+/+) [4]: 2.26
CN(C)C(=O)C(CCN1CCC(O)(c2ccc(Cl)cc2)CC1)(c1ccccc1)c1ccccc1 [loperamide],,,,,,,,,,,,,effect of P-gp inhibition (GF120918) upon pulmonary absorption (P-gp): affected
CCCCc1nc(Cl)c(CO)n1Cc1ccc(-c2ccccc2-c2nn[nH]n2)cc1 [losartan],,,,,,,,,,,,,"extent of pulmonary absorption ([5]; nebulised solutions, anaesthetised rats, mM concentrations): 92%; t^1/2absorption ([5]; nebulised solutions, anaesthetised rats): 5 min"
"O=C1c2c(O)ccc(O)c2C(=O)c2c(NCCNCCO)ccc(NCCNCCO)c21 [Mitoxantrone, mitoxantrone]",GROUP A,25.1%,23.3%,4.79 µM/min,1.13,0.59,27.5 µM/min,35.0 µM/min,13.70 ± 2.69 cm/s (x10^−6),4.69 ± 1.06 cm/s (x10^−6),26.4 [21.9 to 30.9],24.9 [20.8 to 28.9],interaction with Bcrp (ATP turnover) (mouse Bcrp; mouse Bcrp membrane model): showed evidence of interactions with Bcrp
"CCc1cc2c(cc1CC)CC(NC[C@H](O)c1ccc(O)c3[nH]c(=O)ccc13)C2 [Indacaterol, indacaterol]",GROUP B,27.6%,37.3%,0 µM/min,1.23,0.92,119 µM/min,132 µM/min,29.22 ± 4.40 cm/s (x10^−6),15.2 ± 2.79 cm/s (x10^−6),29.3 [25.5 to 33.1],40.6 [36.7 to 44.5],Ratio AUCs (-/-) : (+/+) [1]: 1.37; Vmax (human MDR1): 81.1 µM/min; Ratio Permeability (−/−): (+/+) [4]: 1.92
"OCc1cc(C(O)CNCCCCCCOCCCCc2ccccc2)ccc1O (stereo not shown) [Salmeterol, salmeterol]",GROUP B,36.7%,48.7%,0 µM/min,1.60,0.80,27.5 µM/min,38.2 µM/min,18.33 ± 2.38 cm/s (x10^−6),15.8 ± 2.16 cm/s (x10^−6),42.9 [34.6 to 47.2],57.3 [48.3 to 66.3],Ratio AUCs (-/-) : (+/+) [1]: 1.37; Vmax (human MDR1): 24.4 µM/min; Ratio Permeability (−/−): (+/+) [4]: 1.16
"CCN(CC)CCCC(C)Nc1ccnc2cc(Cl)ccc12 (stereo not shown) [Chloroquine, chloroquine]",,,,,1.43,,,,23.39 ± 4.18 cm/s (x10^−6),,,,
inulin,,,,,,,,,,,,,absorbed from the lung [6]: 17 % of administered dose; absorbed from the small intestine [6]: < 2%
